One assay concerns blood pressure. Put plainly: Test D: Decrease in Normal Feline Blood Pressure and Heart Rate (anesthetized cat). The note with it: intravenous, 0.01 to 10.0 mcg/kg, judged only on hypotension. Type of assay: in vivo. How it is done: The acute effects of test compounds on blood pressure and heart rate were determined in cats of either sex anesthetized with a mixture of pentobarbital sodium (35 mg/kg, i.v.) and barbital sodium (100 mg/kg, i.v.). Cannulas were placed in the trachea to allow adequate spontaneous ventilation, in a femoral artery for blood pressure recording with a strain gage transducer, and in a saphenous vein for drug administration. Heart rate was recorded by means of a cardiotachometer driven by the R wave of the electrocardiogram. After a period of 10 minutes of stable recordings of blood pressure and heart rate, the test compound was administered intravenously at doses increasing from 0.01 to 10.0 mcg/kg, spaced one log and injected at 10 minutes intervals. All doses were injected in a volume of 0.1 ml/kg. Modifications of blood pressure and heart rate induced by the test compound were expressed both in absolute units (mmHg and beats/minutes) and as percent of values recorded immediately before administration of each dose. Biphasic responses were tabulated in the order in which they occur. The direction of the observed changes was also noted (+ for increases and - for decreases).
Activity of compounds in this test was judged only on the basis of the degree of hypotension observed. Thus, the ED50 mmHg (dose decreasing blood pressure by 50 mmHg) was calculated graphically and the compound scored according to the following scale: […]

In the next assay the test system is gastric secretion. Put plainly: Test B: Inhibition of Rodent Gastric Secretion (pylorus-ligated rat). Type of assay: in vivo. The note with it: subcutaneous, 2 x 1.5 mg/kg (total 3.0 mg/kg), 4 hours after pyloric ligation. How it is done: A procedure based on that described by Lipmann (J. Pharm. Pharmacol., 21:335 [ 1968]) was used to assess the influence of test compounds on gastric secretion. Rats of one sex weighing 150 to 200 g were randomly divided into groups of six animals each and fasted for 48 hours previously to the experiments, water being available adlibitum. The animals were anesthetized with ether, the abdomen was opened through a midline incision and the pylorus was ligated. Test compounds were diluted from stock solution so as to administer a dose of 1.5 mg/kg in a volume equivalent to 1 ml/kg. Subcutaneous injections were applied immediately after surgery and again 2 hours later, so that a total dose of 3.0 mg/kg was administered. Dilutions were made with phosphate buffer (pH 7.38) as recommended by Lee et al. (Prostaglandins 3:29 [ 1973]), in order to insure adequate stability of drugs at the subcutaneous depot. Each compound was tested in one group of rats; an additional control group received only the vehicle.
Four hours after pyloric ligation the animals were killed with ether, the cardias ligated and the stomachs removed. The volume of gastric secretion was measured and the contents centrifuged at 5000 rpm for 10 minutes. Total acid in the supernatant was titrated against a 0.1 N sodium hydroxide solution and the amount expressed in mEq.
Volume and total acid values of the treated group were compared with those of the controls by the "T" test. Antisecretory activity was scored according to the following scale: […]

Assay [1] deals with human platelet aggregation. Put plainly: Test A: Inhibition of Human Platelet Aggregation. Type of assay: cell-based. As to conditions: human platelet rich plasma, in vitro, collagen-induced, 37° C, 15 minutes. How it is done:
The ability of test compounds to inhibit platelet aggreagation was determined by a modification of the turbidometric technique of Born (Nature, 194: 927 [1962]). Blood was collected from human volunteer who had not ingested aspirin or aspirin-containing products within the preceding two weeks in heparinized containers and was allowed to settle for one (1) hour. The platelet rich plasma (prp) supernates were collected and cooled. Siliconized glassware was used throughout.
In a representative assay 1.9 ml of PRP and 0.2 ml of test compound at the appropriate concentrations (0.001 to 100 mcgm), or 0.2 ml of distilled water (control procedure) were placed in sample cuvettes. The cuvettes were placed in a 37° C incubation block for 15 minutes, and then in a spectrophotometer linked to a strip chart recorder. After 30-60 seconds, 0.2 ml of a solution, prepared by diluting a calf-skin collagen solution 1:9 with Tyrodes' Solution, was added to each cuvette. Platelet aggregation was evidenced by a decrease in optical density.
An ED50 value was then determined graphically.

The next assay deals with femoral blood flow. Nature of the assay: Test C: Increase in Canidae Femoral Blood Flow. Type of assay: in vivo. As to conditions: anesthetized dog, intraarterial, 0.001 to 10 mcg. As for the experimental part:
The peripheral vasodilator or constrictor effects of test compounds were determined in mongrel dogs of either sex, weighing between 10 and 20 kg anesthestized intravenously with 35 mg/kg of sodium pentobarbital. An external iliac artery was dissected immediately above the femoral arch for a length of approximately 5 cm and a previously calibrated, non-connulating electromagnetic flowmeter sensor with a lumen between 2.5 and 3.5 mm was placed snugly around the vessel. Cannulas were placed in a branch of the artery arising distally to the location of the flowmeter sensor for intraarterial drug administrations, in the contralateral femoral artery for systemic blood pressure recordings and in the trachea for artificial respiration with room air. Femoral blood flow and systemic blood pressure were continuously recorded with an electromagnetic flowmeter and pressure tranducer, respectively.
After an adequate control period, test compounds were injected intraarterially at one log-spaced doses ranging from 0.001 to 10 mcg., in a volume of 0.5 ml and at 5 to 10 minute intervals. Maximum changes in bloodflow, as well as any variations in blood pressure, were tabulated for each dose in absolute values (ml/min. and mmHg). The calculations were made taking as control values those existing immediately before administration of each dose. The direction of the observed change (plus for increase and minus for decrease) was also noted. The dose changing bloodflow by 100 ml/min (ED100 ml/min) was calculated graphically and was used for scoring activity as follows: […]

Take `O=C(O)CCCCCC[C@H]1C(=O)CC[C@@H]1/C=C/[C@H](O)C1CC2CCC2C1` (mixture of isomers) [TR-4096, dl-7-{5-oxo-2R[3R-hydroxy-3-(bicyclo[3.2.0]hept-3-yl)-1E-propenyl[cyclopent-1R-yl}heptanoic acid]: the “Activity Value Test D (ED50 mmHg, dose decreasing blood pressure by 50 mmHg)” value in the assay on blood pressure is on record as 0 (>10.0). Also, in the assay on gastric secretion, the “Activity Value Test B (% decrease in acidity)” value was 0 (<26). In assay [1], the “Activity Value Test A (ED50, inhibition of platelet aggregation)” value is on record as 1 (>1.0). Moreover, in the assay on femoral blood flow, the “Activity Value Test C (ED100 ml/min, dose changing bloodflow by 100 ml/min)” value (“Activity Value Test C” for short) is 2 (0.11 - 1.0).
As to `O=C(O)CCCCCC[C@H]1C(=O)CC[C@@H]1/C=C/[C@@H](O)C1CC2CCC2C1` (mixture of isomers) [TR-4097, dl-7-{5-oxo-2R-[3S-hydroxy-3-(bicyclo[3.2.0]hept-3-yl)-1E-propenyl]cyclopent-1R-yl}heptanoic acid], the “Activity Value Test D (ED50 mmHg, dose decreasing blood pressure by 50 mmHg)” value in the assay with blood pressure is given as 0 (>10.0). Further, the “Activity Value Test B (% decrease in acidity)” value in the assay on gastric secretion is recorded as 2 (26-50, significant). Further, the “Activity Value Test A (ED50, inhibition of platelet aggregation)” value in assay [1] was 1 (>1.0). For the same molecule, in the assay on femoral blood flow, the “Activity Value Test C” value is recorded as 1 (1.01 - 10.0).
On the same counts, the results for `O=C(O)CCC/C=C\C[C@H]1C(=O)CC[C@@H]1/C=C/[C@@H](O)C1CC2CCC2C1` (mixture of isomers) [TR-4102, dl-7-{5-oxo-2R-[8 3S-hydroxy-3-(bicyclo[3.2.0]hept-3-yl)-1E-propenyl]cyclopent-1R-yl}hept-5Z-enoic acid] are 0 (>10.0), 4 (76-100), 1 (>1.0) and 2 (0.11 - 1.0).
Consider `O=C(O)CCC/C=C\C[C@H]1C(=O)CC[C@@H]1/C=C/[C@H](O)CCCCC1CCCC2CCCCC21` (mixture of isomers) [TR-4173, dl-7-{5-oxo-2R-[3R-hydroxy-7-(bicyclo[4.4.0]dec-2-yl)-1E-heptenyl]cyclopent-1R-yl}hept-5Z-enoic acid], for which the “Activity Value Test A (ED50, inhibition of platelet aggregation)” value in assay [1] was 1 (>1.0).
Turning to `O=C(O)CCC/C=C\C[C@H]1C(=O)CC[C@@H]1/C=C/[C@H](O)CCCCC1CCCC2CCCCC21` (relative stereo) [TR-4174, dl-7-{5-oxo-2R-[3R-hydroxy-7-(bicyclo[4.4.0]dec-2-yl)-1E-heptenyl]cyclopent-1R-yl}-hept-5Z-enoic acid], in assay [1], the “Activity Value Test A (ED50, inhibition of platelet aggregation)” value is recorded as 1 (>1.0).
Take `O=C(O)CCCCCC[C@H]1C(=O)CC[C@@H]1/C=C/[C@@H](O)CCCCC1CCCC2CCCCC21` (relative stereo) [TR-4189, dl-7-{5-oxo-2R[3S-hydroxy-7-(bicyclo[4.4.0]dec-2-yl)-1E-heptenyl]cyclopent-1R-yl}heptanoic acid]: the “Activity Value Test B (% decrease in acidity)” value with gastric secretion is 0 (<26). Also, the “Activity Value Test A (ED50, inhibition of platelet aggregation)” value in assay [1] is listed as 1 (>1.0).
On to `O=C(O)CCCCCC[C@H]1C(=O)CC[C@@H]1/C=C/[C@H](O)CCCCC1CCCC2CCCCC21` (relative stereo) [TR-4190, dl-7-{5-oxo-2R-[3R-hydroxy-7-(bicyclo[4.4.0]dec-2-yl)-1E-heptenyl]cyclopent-1R-yl}heptanoic acid], for which, in the assay with gastric secretion, the “Activity Value Test B (% decrease in acidity)” value is recorded as 0 (<26). In addition, in assay [1], the “Activity Value Test A (ED50, inhibition of platelet aggregation)” value is 1 (>1.0).
As to `COC(=O)CCCCCC[C@H]1C(=O)C[C@@H](O)[C@@H]1/C=C/[C@H](O)C1CC2CCC2C1` (stereo partly drawn) [TR-4098, methyl 7-{3R-hydroxy-5-oxo-2R-[3R-hydroxy-3-(bicyclo[3.2.0]hept-3-yl)-1E-propenyl]cyclopent-1R-yl]heptanoate], the “Activity Value Test D (ED50 mmHg, dose decreasing blood pressure by 50 mmHg)” value with blood pressure is 2 (0.11 - 1.0). In addition, the “Activity Value Test B (% decrease in acidity)” value with gastric secretion is given as 4 (76-100). In addition, the “Activity Value Test C” value in the assay with femoral blood flow is 2 (0.11 - 1.0).
Take `COC(=O)CCCCCC[C@H]1C(=O)C[C@@H](O)[C@@H]1/C=C/[C@@H](O)C1CC2CCC2C1` (stereo partly drawn) [TR-4099, methyl 7-{3R-hydroxy-5-oxo-2R-[2S-hydroxy-3-(bicyclo[3.2.0]hept-3-yl)-1E-propenyl]cyclopent-1R-yl)heptanoae]: the “Activity Value Test D (ED50 mmHg, dose decreasing blood pressure by 50 mmHg)” value with blood pressure is listed as 0 (>10.0). In the assay on gastric secretion, the “Activity Value Test B (% decrease in acidity)” value is 1 (26-50, not significant). For the same molecule, the “Activity Value Test A (ED50, inhibition of platelet aggregation)” value in assay [1] is given as 2 (>0.1≤1.0). Also, in the assay on femoral blood flow, the “Activity Value Test C” value is listed as 0 (>10.0).
In the case of `COC(=O)CCCCCC[C@H]1C(=O)C[C@@H](O)[C@@H]1/C=C/[C@H](O)CCCCC1CCC2CCC1C2` (stereo partly drawn) [TR-4116, methyl 7-{3R-hydroxy-5-oxo-2R-[3R-hydroxy-7-(bicyclo[3.2.1]oct-2-yl)-1E-heptenyl]cyclopent-1R-yl}heptanoate], the “Activity Value Test D (ED50 mmHg, dose decreasing blood pressure by 50 mmHg)” value in the assay with blood pressure is reported as 0 (>10.0). In the assay on gastric secretion, the “Activity Value Test B (% decrease in acidity)” value was 0 (<26). Moreover, the “Activity Value Test A (ED50, inhibition of platelet aggregation)” value in assay [1] is 1 (>1.0). Besides, in the assay with femoral blood flow, the “Activity Value Test C” value is recorded as 0 (>10.0).
As to `COC(=O)CCCCCC[C@H]1C(=O)C[C@@H](O)[C@@H]1/C=C/[C@@H](O)CCCCC1CCC2CCC1C2` (stereo partly drawn) [TR-4117, methyl 7-{3R-hydroxy-5-oxo-2R-[3S-hydoxy-7-(bicyclo[3.2.1]oct-2-yl)-1E-heptenyl]cyclopent-1R-yl}heptanoate], in the assay with blood pressure, the “Activity Value Test D (ED50 mmHg, dose decreasing blood pressure by 50 mmHg)” value is reported as 0 (>10.0). Further, the “Activity Value Test B (% decrease in acidity)” value in the assay on gastric secretion is listed as 0 (<26). Besides, in assay [1], the “Activity Value Test A (ED50, inhibition of platelet aggregation)” value was 1 (>1.0). The “Activity Value Test C” value with femoral blood flow is 0 (>10.0).
Regarding `COC(=O)CCCCCC[C@H]1C(=O)C=C[C@@H]1/C=C/[C@@H](O)CCCCC1CCC2CCC1C2` (stereo partly drawn) [TR-4118, methyl 7-{5-oxo-2R-[3S-hydroxy-7-(bicyclo[3.2.1]oct-2-yl)-1E-heptenyl]cyclopent-3-en-1R-yl}heptanoate], the “Activity Value Test D (ED50 mmHg, dose decreasing blood pressure by 50 mmHg)” value in the assay on blood pressure was 0 (>10.0). Besides, in the assay on gastric secretion, the “Activity Value Test B (% decrease in acidity)” value was 0 (<26). Further, the “Activity Value Test A (ED50, inhibition of platelet aggregation)” value in assay [1] is 1 (>1.0). In addition, in the assay with femoral blood flow, the “Activity Value Test C” value was 0 (>10.0).
For the molecule `COC(=O)CCCCCC[C@@H]1[C@@H](/C=C/[C@@H](O)C2CC3CCC3C2)[C@H](O)C[C@@H]1O` (stereo partly drawn) [TR-4711, methyl 7-{3R, 5S-dihydroxy-2R-[3S-hydroxy-3-(bicyclo[3.2.0]hept-3-yl)-1E-propenyl]cyclopent-1R-yl}heptanoate], in the assay with gastric secretion, the “Activity Value Test B (% decrease in acidity)” value is recorded as 1 (26-50, not significant).
Still for that read-out and setting: next, `COC(=O)CCCCCC[C@@H]1[C@@H](/C=C/[C@@H](O)C2CC3CCC3C2)[C@H](O)C[C@H]1O` (stereo partly drawn) [TR-4712, methyl 7-{3R,5R-dihydroxy-2R-[3S-hydroxy-3-(bicyclo[3.2.0]hept-3-yl)-1E-propenyl]cyclopent-1R-yl}heptanoate]: 2 (26-50, significant).

Values taken from patent US4115453A (Miles Laboratories, Inc., priority 1977, dated 1978).
